# Assay results as given in PMC8388771, “Cationic Peptidomimetic Amphiphiles Having a N-Aryl- or N-Naphthyl-1,2,3-Triazole Core Structure Targeting Clostridioides (Clostridium) difficile: Synthesis, Antibacterial Evaluation, and an In Vivo C. difficile Infection Model” (Antibiotics, 2021).
# Read-outs that look alike come from different tables or passages of the source.
# Columns and labels:
# [1] = tested on: C. difficile strain R20291; design: method as in ref 30 (compound 1), 19 (compound 3); details: Table 2 footnote h; ref 30 (compound 1), 19 (compound 3); cited from earlier work
# E. faecalis ATCC 29212 [2] = tested on: E. faecalis ATCC 29212; design: method as in ref 30 (1), 31 (2, 4), 19 (3); details: Table 2; ref 30 (1), 31 (2, 4), 19 (3); cited from earlier work
# E. coli ATCC 25922 [3] = tested on: E. coli ATCC 25922; design: method as in ref 30 (1), 31 (2, 4), 19 (3); details: Table 2; ref 30 (1), 31 (2, 4), 19 (3); cited from earlier work
# [4] = design: method as in PMID 30901686; details: cited from earlier work; for appearance in the solubility assay: Figure 1
# S. aureus ATCC 29213 [5] = tested on: S. aureus ATCC 29213; design: method as in ref 30 (1), 31 (2, 4), 19 (3); details: Table 2; ref 30 (1), 31 (2, 4), 19 (3); cited from earlier work
# [6] = tested on: C. difficile strain M7404 (RT027); design: method as in ref 30 (compound 1), 19 (compound 3); details: Table 2 footnote g; ref 30 (compound 1), 19 (compound 3); cited from earlier work
# C. difficile [7] = details: Figure 1; cited from earlier work
# S. pneumoniae ATCC 49619 [8] = tested on: S. pneumoniae ATCC 49619; design: method as in ref 30 (1), 31 (2, 4), 19 (3); details: Table 2; ref 30 (1), 31 (2, 4), 19 (3); cited from earlier work
# S. aureus ATCC 43300 [9] = tested on: S. aureus ATCC 43300; design: method as in PMID 30831407; details: Table 2; MRSA; cited from earlier work
# sheep erythrocytes = details: cited from earlier work; for % hemolysis at 50 µg/mL: Table 2 HC50 column, footnote i, sheep erythrocytes; for in vitro hemolytic activity: in words
# C. difficile [10] = tested on: C. difficile; design: method as in PMID 30901686; details: murine CDI model, cited from earlier work; for survival rate at 24 h: 10% DMSO group 0%
# C. difficile 132 (RT027) [11] = tested on: C. difficile 132 (RT027); design: method as in PMID 30831407; details: Table 2; cited from earlier work
# S. aureus NCTC 10442 [12] = tested on: S. aureus NCTC 10442; design: method as in ref 31 (2, 4), 19 (3); details: Table 2; MRSA; ref 31 (2, 4), 19 (3); cited from earlier work
# HEK293 cells [13] = tested on: HEK293 cells; design: method as in PMID 30831407; details: Table 2; cited from earlier work
# S. aureus ATCC 43300 [14] = assay: CO-ADD MIC assay, S. aureus ATCC 43300 (MRSA); format: cell-based; details: Table S1, MRSA, CO-ADD
# Method in brief: (§1)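 CO-ADD whole-cell growth-inhibition MIC screening of the peptidomimetics against MRSA and Gram-negative strains.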
# [15] = Cytotoxicity (CC50) assay by CO-ADD; format: cell-based, human; details: human, HEK293 cells (ATCC CRL-1573); Table S1; HEK293 cells
# HEK293 cells [16] = assay: Cytotoxicity (CC50) assay by CO-ADD; format: cell-based, human; details: Table 1; cytotoxicity on HEK293 cells, tested at ≤32 µg/mL
# S. aureus ATCC 29213 [17] = assay: Primary MIC assay, S. aureus ATCC 29213; format: cell-based; details: Staphylococcus aureus, ATCC29213; Table 1; read-out: MIC S. aureus ATCC 29213
# Method in brief: (§2)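 MIC values come from primary screening run to CLSI standards for aerobic and anaerobic bacteria, with vancomycin QC ranges checked.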
# E. coli ATCC 25922 [18] = assay: Primary MIC assay, E. coli ATCC 25922; format: cell-based; details: Escherichia coli, ATCC25922; Table 1; read-out: MIC E. coli ATCC 25922
# S. pneumoniae ATCC 49619 [19] = assay: Primary MIC assay, S. pneumoniae ATCC 49619; format: cell-based, Streptococcus pneumoniae; details: Table 1
# Method in brief: as §2
# A. baumannii ATCC 19606 = assay: CO-ADD MIC assay, A. baumannii ATCC 19606; format: cell-based; details: Acinetobacter baumannii, ATCC19606, Table S1
# Method in brief: as §1
# S. aureus NCTC 10442 [20] = assay: Primary MIC assay, S. aureus NCTC 10442 (MRSA); format: cell-based; details: Staphylococcus aureus; Table 1; MRSA; read-out: MIC S. aureus NCTC 10442
# Method in brief: as §2
# human erythrocytes = assay: Hemolysis assay, HC50 determination; format: cell-based
# Description: Hemolysis assay (human erythrocytes)–HC50 determination. These were performed as described previously.
# C. difficile 132 (RT027) [21] = assay: Primary MIC assay, C. difficile 132 (RT027); format: cell-based, Clostridioides difficile; details: Clostridioides difficile; Table 1; read-out: MIC C. difficile 132 (RT027)
# Method in brief: as §2
# E. coli ATCC 25922 [22] = assay: CO-ADD MIC assay, E. coli ATCC 25922; format: cell-based
# Method in brief: as §1
# C. difficile ATCC 700057 = assay: Primary MIC assay, C. difficile ATCC 700057; format: cell-based, Clostridioides difficile; details: Clostridioides difficile, ATCC700057; Table 1; read-out: MIC C. difficile ATCC 700057
# Method in brief: as §2
# E. faecalis ATCC 29212 [23] = assay: Primary MIC assay, E. faecalis ATCC 29212; format: cell-based, Enterococcus faecalis; details: Table 1
# Method in brief: as §2
# [24] = tested on: K. pneumoniae ATCC 700603; assay: CO-ADD MIC assay, K. pneumoniae ATCC 700603; format: cell-based; details: Klebsiella pneumoniae, ATCC700603, Table S1, multi-drug resistant
# Method in brief: as §1
# P. aeruginosa ATCC 27853 = assay: CO-ADD MIC assay, P. aeruginosa ATCC 27853; format: cell-based; details: Pseudomonas aeruginosa, ATCC27853, Table S1
# Method in brief: as §1
# C. albicans ATCC 90028 = assay: CO-ADD MIC assay, C. albicans ATCC 90028; format: cell-based
# Method in brief: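 Whole-cell growth inhibition (MIC) screening run by CO-ADD. Fluconazole served as antifungal positive control.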
smiles,measurement,setting,value
CC(C)CCOC(=O)[C@H](CC(C)C)NC(=O)[C@@H](CCCNC(=N)N)NC(=O)[C@@H](CCCCN)NC(=O)COc1ccc2ccccc2c1-c1c(OCCC(C)C)ccc2ccccc12 [Compound 1],MIC C. difficile strain R20291 (RT207),[1],8 ^h μg/mL
same,MIC E. faecalis ATCC 29212,E. faecalis ATCC 29212 [2],2 µg/mL
same,MIC E. coli ATCC 25922,E. coli ATCC 25922 [3],16 µg/mL
same,appearance in the solubility assay,[4],homogenous suspension
same,SR = solubility ratio relative to that of compound 1,[4],1
same,MIC S. aureus ATCC 29213,S. aureus ATCC 29213 [5],2 µg/mL
same,MIC C. difficile strain M7404 (RT027),[6],8 ^g μg/mL
same,MIC against C. difficile,C. difficile [7],8 µg/mL
same,MIC S. pneumoniae ATCC 49619,S. pneumoniae ATCC 49619 [8],2 µg/mL
CC(C)CCOc1ccc2ccccc2c1-c1c(OCc2cn(C[C@@H](CCCCN)NC(=O)[C@@H](CCCNC(=N)N)NC(=O)CCc3ccccc3)nn2)ccc2ccccc12 [Compound 2],MIC S. aureus ATCC 43300,S. aureus ATCC 43300 [9],2 µg/mL
same,% hemolysis at 50 µg/mL,sheep erythrocytes,94% ^i
same,MIC E. faecalis ATCC 29212,E. faecalis ATCC 29212 [2],4 µg/mL
same,survival rate at 24 h,C. difficile [10],50%
same,MIC C. difficile 132 (RT027),C. difficile 132 (RT027) [11],32 µg/mL
same,MIC E. coli ATCC 25922,E. coli ATCC 25922 [3],8 µg/mL
same,appearance in the solubility assay,[4],homogenous suspension
same,SR = solubility ratio relative to that of compound 1,[4],3
same,MIC S. aureus ATCC 29213,S. aureus ATCC 29213 [5],4 µg/mL
same,MIC S. aureus NCTC 104422,S. aureus NCTC 10442 [12],4 µg/mL
same,CC50,HEK293 cells [13],27.4 µg/mL
same,MIC against C. difficile,C. difficile [7],8 µg/mL
same,MIC S. pneumoniae ATCC 49619,S. pneumoniae ATCC 49619 [8],4 µg/mL
CC(C)CCOc1ccc2ccccc2c1-c1c(OCC(=O)N[C@H](CCCNC(=N)N)Cn2cc(-c3ccccc3)nn2)ccc2ccccc12 [Compound 3],MIC C. difficile strain R20291 (RT207),[1],8 ^h μg/mL
same,Haemolysis,sheep erythrocytes; Figure 1,86%
same,in vitro hemolytic activity,sheep erythrocytes,high
same,MIC E. faecalis ATCC 29212,E. faecalis ATCC 29212 [2],4 µg/mL
same,MIC E. coli ATCC 25922,E. coli ATCC 25922 [3],>128 µg/mL
same,appearance in the solubility assay,[4],flocculation
same,SR = solubility ratio relative to that of compound 1,[4],1
same,solubility during preparation in a 10% DMSO solution,[4]; precipitation,poor solubility
same,MIC S. aureus ATCC 29213,S. aureus ATCC 29213 [5],2 µg/mL
same,MIC S. aureus NCTC 104422,S. aureus NCTC 10442 [12],2 µg/mL
same,MIC C. difficile strain M7404 (RT027),[6],8 ^g μg/mL
same,MIC against C. difficile,C. difficile [7],8 µg/mL
same,MIC S. pneumoniae ATCC 49619,S. pneumoniae ATCC 49619 [8],8 µg/mL
CC(C)CCOc1ccccc1-c1ccccc1OCc1cn(C[C@@H](CCCCN)NC(=O)[C@@H](CCCNC(=N)N)n2cc(C3CCCCC3)nn2)nn1 [Compound 4],MIC S. aureus ATCC 43300,S. aureus ATCC 43300 [9],4 µg/mL
same,% hemolysis at 50 µg/mL,sheep erythrocytes,23% ^i
same,in vitro hemolytic activity,sheep erythrocytes,low
same,MIC E. faecalis ATCC 29212,E. faecalis ATCC 29212 [2],8 µg/mL
same,survival rate at 24 h,C. difficile [10],60%
same,survival rate after 48 h,C. difficile [10],0%
same,MIC C. difficile 132 (RT027),C. difficile 132 (RT027) [11],8 µg/mL
same,MIC E. coli ATCC 25922,E. coli ATCC 25922 [3],8 µg/mL
same,appearance in the solubility assay,[4],homogenous suspension
same,SR = solubility ratio relative to that of compound 1,[4],4
same,MIC S. aureus ATCC 29213,S. aureus ATCC 29213 [5],8 µg/mL
same,MIC S. aureus NCTC 104422,S. aureus NCTC 10442 [12],4 µg/mL
same,CC50,HEK293 cells [13],14.2 µg/mL
same,MIC against C. difficile,C. difficile [7],4 µg/mL
same,MIC S. pneumoniae ATCC 49619,S. pneumoniae ATCC 49619 [8],4 µg/mL
CC(C)CCc1cn(-c2c(OCC(=O)N[C@H](CCCNC(=N)N)Cn3cc(C4CCCCC4)nn3)ccc3ccccc23)nn1 [Compound 21],MIC,"S. aureus ATCC 43300 [14]; Staphylococcus aureus, read-out: MIC S. aureus ATCC 43300",16 µg/mL
same,MIC S. aureus ATCC 43300,S. aureus ATCC 43300 [14],8 µg/mL
same,CC50,[15],> 32 µg/mL
same,CC50,HEK293 cells [16],>32 µg/mL
same,MIC,S. aureus ATCC 29213 [17],8 µg/mL
same,MIC,E. coli ATCC 25922 [18],128 µg/mL
same,MIC,"S. pneumoniae ATCC 49619 [19]; Streptococcus pneumoniae, ATCC49619, read-out: MIC S. pneumoniae ATCC 49619",16 µg/mL
same,MIC S. pneumoniae ATCC 49619,S. pneumoniae ATCC 49619 [19],4 µg/mL
same,MIC,A. baumannii ATCC 19606,> 32 µg/mL
same,MIC,S. aureus NCTC 10442 [20],8 µg/mL
same,HC50,"human erythrocytes; Table 1, lysis of human erythrocytes",>32 µg/mL
same,HC50,"human erythrocytes; Table S1, footnote says lysis of sheep erythrocytes",> 32 µg/mL
same,MIC,C. difficile 132 (RT027) [21],> 128 µg/mL
same,MIC,"E. coli ATCC 25922 [22]; Escherichia coli, ATCC25922, Table S1",32 µg/mL
same,MIC E. coli ATCC 25922,E. coli ATCC 25922 [22]; Table S1,> 32 µg/mL
same,MIC,C. difficile ATCC 700057,128 µg/mL
same,MIC,"E. faecalis ATCC 29212 [23]; Enterococcus faecalis, ATCC29212, read-out: MIC E. faecalis ATCC 29212",16 µg/mL
same,MIC E. faecalis ATCC 29212,E. faecalis ATCC 29212 [23],4 µg/mL
same,MIC,[24],> 32 µg/mL
same,MIC,P. aeruginosa ATCC 27853,> 32 µg/mL
same,MIC,"C. albicans ATCC 90028; Candida albicans, ATCC90028, Table S1",32 µg/mL
same,MIC C. albicans ATCC 90028,C. albicans ATCC 90028; Table S1,> 32 µg/mL
